Patent US6492137B1, “Response element compositions and assays employing same” (The Salk Institute for Biological Studies, priority 1989, dated 2002)

Molecular target: T1, VDR (Homo sapiens, UniProt P11473)
T1 sequence (P11473 1-427): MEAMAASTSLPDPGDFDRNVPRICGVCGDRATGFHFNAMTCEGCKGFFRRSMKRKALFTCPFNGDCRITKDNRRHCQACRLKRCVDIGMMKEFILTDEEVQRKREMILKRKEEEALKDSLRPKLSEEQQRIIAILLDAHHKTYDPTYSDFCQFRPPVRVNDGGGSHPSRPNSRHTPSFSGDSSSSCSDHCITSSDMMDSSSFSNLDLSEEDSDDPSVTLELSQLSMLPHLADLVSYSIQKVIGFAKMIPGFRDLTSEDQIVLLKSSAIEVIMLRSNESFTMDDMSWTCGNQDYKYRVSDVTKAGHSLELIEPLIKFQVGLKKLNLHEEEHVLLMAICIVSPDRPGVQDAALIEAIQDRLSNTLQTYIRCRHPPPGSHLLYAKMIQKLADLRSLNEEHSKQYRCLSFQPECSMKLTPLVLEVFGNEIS
Experiment: ΔSV-CAT reporter cotransfection assay in CV-1 cells with VDR expression plasmid, ±VD3
Format: cell-based
Set-up: expressed in transfected cells; host or cells: CV-1 (monkey kidney)
Details: VD3 100 nM
Excerpt: Receptor expression plasmids used in the following cotransfection assays have been described previously (pRShTRβ [see Thompson, et al., Proc. Natl. Acad. Sci. U.S.A. 86: 3494-3498 (1989)]; pRShRARα [see Giguere, et al., Nature 330: 624-629 (1987)]; pRShRARβ and pRshRARγ [see Ishikawa, et al., Mol. Endocrinol, 4: 837-844 (1990)]; and pRShVDR, [Schule, et al., Cell 61: 497-504 (1990)]. A basal reporter plasmid ΔSV-CAT was constructed by replacing the TK promoter in TK-CAT [Damm, et al., Nature 339: 593-597 (1989)] with the SphI-HindIII fragment of the SV40 early promoter. All of the recombinant CAT reporter plasmids used herein harbor a single copy of the indicated oligonucleotides at the unique HindIII site upstream of the SV40 promoter. Identity of the inserted oligonucleotides was confirmed by sequencing. To improve production of receptor proteins in COS cells, a new eukaryotic expression vector pCMX was prepared by modifying the plasmid CDM8 [Seed, B., Nature 329: 840-842 (1987)]. The CDM8 was cut with MluI and StuI in order to release the DNA fragment encoding the CMV/T7 promoter, SV40 small t intron/poly A signal, polyoma virus enhancer/origin, and SV40 enhancer/origin. The resulting fragment was ligated to a larger fragment of PvuII-digested PUC19. An internal deletion was introduced between unique BamHI and BclI sites present in the DCM8 portion. […]

## GDR-4: identical to DR-4 except half-site changed to AGAACA, a GRE half-site (SEQ ID NO:28) (AGCTTCAGAACACAGGAGAACAGAGAGCT; DNA, backbone not given here; double-stranded DNA response element with agct overhangs, cloned into reporter)
  vitamin D3 response (in words): completely inactive

## GDR-3: identical to DR-3 except half-site changed to AGAACA, a GRE half-site (SEQ ID NO:26) (AGCTTCAGAACAAGGAGAACAGAGAGCT; DNA, backbone not given here; double-stranded DNA response element with agct overhangs, cloned into reporter)
  vitamin D3 response (in words): completely inactive
